The assay deals with T1, ΔF508-CFTR (Homo sapiens, UniProt P13569, DEL508-508).
T1 construct: expressed in transfected cells
The assay can be described thus: Membrane potential optical (FRET/VIPR) assay, identification of potentiator compounds. Format: cell-based. Conditions: Table 3, assay not given; for % Activity: relative efficacy. The method, boiled down:
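Double-addition potentiator screen: compound delivered in gluconate-substituted Cl^--free medium, membrane potential followed via CC2-DMPE/DiSBAC2(3) FRET on VIPR. Cells were ΔF508-CFTR-expressing NIH3T3 mouse fibroblasts, held 2 h at 37° C. then 24 h at 27° C. before assay.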

Each structure is given as a SMILES string. Where only a bound is given, the exact number is not on record here.

T1 sequence (P13569 with tags, fused parts or gaps DEL508-508): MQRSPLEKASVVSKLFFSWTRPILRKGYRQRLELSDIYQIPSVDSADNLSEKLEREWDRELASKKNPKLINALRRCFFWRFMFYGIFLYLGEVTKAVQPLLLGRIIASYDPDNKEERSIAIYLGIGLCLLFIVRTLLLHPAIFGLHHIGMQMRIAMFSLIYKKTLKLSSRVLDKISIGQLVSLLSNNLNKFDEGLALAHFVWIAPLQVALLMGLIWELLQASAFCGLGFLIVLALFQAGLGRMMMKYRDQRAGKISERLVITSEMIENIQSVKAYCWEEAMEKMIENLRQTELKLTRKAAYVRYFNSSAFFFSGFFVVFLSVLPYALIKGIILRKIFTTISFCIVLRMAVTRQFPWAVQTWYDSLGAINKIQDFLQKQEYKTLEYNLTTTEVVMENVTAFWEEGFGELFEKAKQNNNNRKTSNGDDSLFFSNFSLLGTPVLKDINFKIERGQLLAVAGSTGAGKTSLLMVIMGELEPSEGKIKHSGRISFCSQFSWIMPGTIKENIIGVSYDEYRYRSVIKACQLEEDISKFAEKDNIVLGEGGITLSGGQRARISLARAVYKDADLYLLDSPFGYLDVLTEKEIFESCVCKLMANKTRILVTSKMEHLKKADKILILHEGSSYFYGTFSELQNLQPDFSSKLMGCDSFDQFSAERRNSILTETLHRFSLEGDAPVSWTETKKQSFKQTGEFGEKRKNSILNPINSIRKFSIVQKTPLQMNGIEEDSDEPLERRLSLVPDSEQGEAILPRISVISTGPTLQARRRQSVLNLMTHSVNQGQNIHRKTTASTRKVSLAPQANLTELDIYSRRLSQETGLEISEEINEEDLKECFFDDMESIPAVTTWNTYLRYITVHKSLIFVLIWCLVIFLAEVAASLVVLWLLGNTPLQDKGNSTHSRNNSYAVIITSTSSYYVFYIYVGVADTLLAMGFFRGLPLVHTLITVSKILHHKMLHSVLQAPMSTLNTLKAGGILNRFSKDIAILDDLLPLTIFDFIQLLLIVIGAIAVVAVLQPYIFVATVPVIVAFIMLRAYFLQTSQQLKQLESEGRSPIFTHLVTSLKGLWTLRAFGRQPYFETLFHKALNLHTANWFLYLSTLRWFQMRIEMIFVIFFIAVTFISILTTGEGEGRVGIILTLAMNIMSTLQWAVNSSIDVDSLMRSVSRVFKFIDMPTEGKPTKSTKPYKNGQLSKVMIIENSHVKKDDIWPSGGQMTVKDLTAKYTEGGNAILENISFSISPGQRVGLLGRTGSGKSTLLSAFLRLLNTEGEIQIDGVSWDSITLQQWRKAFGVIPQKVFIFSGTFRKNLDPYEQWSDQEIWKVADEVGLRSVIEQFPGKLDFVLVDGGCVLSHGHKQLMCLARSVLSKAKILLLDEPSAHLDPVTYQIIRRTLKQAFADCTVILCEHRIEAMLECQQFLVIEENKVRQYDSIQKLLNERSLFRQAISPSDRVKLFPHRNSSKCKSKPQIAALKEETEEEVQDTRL

As usually defined, the EC50 is the concentration giving half of the maximal effect. Consider `COC(=O)c1c(NC(=O)c2c[nH]c3ccccc3c2=O)csc1C(C)(C)C` [Compound 690, methyl 4-[(4-oxo-1H-quinolin-3-yl)carbonylamino]-2-tert-butyl-thiophene-3-carboxylate], for which the concentration for a half-maximal effect (EC50) was less than 10 µM and the “% Activity” value is recorded as “++ (between 25% to 100%)”.

In the case of `CC(C)(C)c1cc2cc[nH]c2cc1NC(=O)c1c[nH]c2ccc(O)cc2c1=O` [Compound 679, 6-hydroxy-4-oxo-N-(5-tert-butyl-1H-indol-6-yl)-1H-quinoline-3-carboxamide], the EC50 is less than 10 µM and the “% Activity” value is “++ (between 25% to 100%)”.

As for `CC(=O)c1cccc(NC(=O)c2c[nH]c3ccccc3c2=O)c1` [Compound 328, N-(3-acetylphenyl)-4-oxo-1H-quinoline-3-carboxamide], the EC50 fell in the range of 25 to 60 µM and the “% Activity” value is reported as “+ (<25%)”.

With `COc1nc2ccccc2c(OC)c1C(=O)Nc1ccccc1-c1ccccc1` [Compound 210, 2,4-dimethoxy-N-(2-phenylphenyl)-quinoline-3-carboxamide], the EC50 fell in the range of 10 to 25 µM and the “% Activity” value was “++ (between 25% to 100%)”.

On to `CSc1nc2ccccc2c(O)c1C(=O)Nc1ccc2cc[nH]c2c1` [Compound 374, 4-hydroxy-N-(1H-indol-6-yl)-2-methylsulfanyl-quinoline-3-carboxamide], for which the EC50 lay within 25 to 60 µM and the “% Activity” value is listed as “+ (<25%)”.

Turning to `O=C(Nc1cc2[nH]ccc2cc1Cl)c1c[nH]c2ccccc2c1=O` [Compound 32, N-(5-chloro-1H-indol-6-yl)-4-oxo-1H-quinoline-3-carboxamide], the concentration giving a half-maximal response (EC50) is less than 10 µM and the “% Activity” value was “++ (between 25% to 100%)”.

With `Cc1ccccc1Oc1ccccc1NC(=O)c1c[nH]c2ccccc2c1=O` [Compound 20, N-[2-(2-methylphenoxy)phenyl]-4-oxo-1H-quinoline-3-carboxamide], the EC50 is less than 10 µM and the “% Activity” value is listed as “++ (between 25% to 100%)”.

For `O=C(Nc1ccc(N2CCCC2)cc1)c1c[nH]c2ccccc2c1=O` [Compound 674, 4-oxo-N-(4-pyrrolidin-1-ylphenyl)-1H-quinoline-3-carboxamide], the “% Activity” value is given as “++ (between 25% to 100%)”.

With `CC1(C)CCCNc2cc(NC(=O)c3c[nH]c4ccccc4c3=O)ccc21` [Compound 35, 1,4-dihydro-N-(2,3,4,5-tetrahydro-5,5-dimethyl-1H-benzo[b]azepin-8-yl)-4-oxoquinoline-3-carboxamide], the half-maximal effective concentration (EC50) is less than 10 µM and the “% Activity” value was “++ (between 25% to 100%)”.

With `CC(C)(C)c1ccc(NC(=O)c2c[nH]c3ccccc3c2=O)cc1F` [Compound 645, N-(3-fluoro-4-tert-butyl-phenyl)-4-oxo-1H-quinoline-3-carboxamide], the EC50 is less than 10 µM and the “% Activity” value is recorded as “++ (between 25% to 100%)”.

With `O=C(Nc1ccc(C(F)(F)F)c(O)c1)c1c[nH]c2cccc(O)c2c1=O` [Compound 700, 5-hydroxy-N-[3-hydroxy-4-(trifluoromethyl)phenyl]-4-oxo-1H-quinoline-3-carboxamide], the EC50 was less than 10 µM and the “% Activity” value was “++ (between 25% to 100%)”.

`O=C(Nc1cccnc1)c1c[nH]c2ccccc2c1=O` [Compound 168, 4-oxo-N-(3-pyridyl)-1H-quinoline-3-carboxamide]: the concentration for a half-maximal effect (EC50) lay within 25 to 60 µM and the “% Activity” value is given as “+ (<25%)”.

In the case of `O=C(Nc1ccc2c(c1)NCCCC2)c1c[nH]c2ccccc2c1=O` [Compound 10, 1,4-dihydro-N-(2,3,4,5-tetrahydro-1H-benzo[b]azepin-8-yl)-4-oxoquinoline-3-carboxamide], the EC50 was less than 10 µM and the “% Activity” value is on record as “++ (between 25% to 100%)”.

As to `Cc1cccnc1NC(=O)c1c[nH]c2ccccc2c1=O` [Compound 192, N-(3-methyl-2-pyridyl)-4-oxo-1H-quinoline-3-carboxamide], the 50% effective concentration (EC50) lay within 25 to 60 µM and the “% Activity” value was “+ (<25%)”.

`Cc1cccc2[nH]cc(C(=O)Nc3cc4[nH]ccc4cc3C(C)(C)C)c(=O)c12` [Compound 565, 5-methyl-4-oxo-N-(5-tert-butyl-1H-indol-6-yl)-1H-quinoline-3-carboxamide]: the EC50 was less than 10 µM and the “% Activity” value was “++ (between 25% to 100%)”.

`CC(=O)N1CCCC(C)(C)c2ccc(NC(=O)c3c[nH]c4ccccc4c3=O)cc21` [Compound 109, N-(1-acetyl-2,3,4,5-tetrahydro-5,5-dimethyl-1H-benzo[b]azepin-8-yl)-1,4-dihydro-4-oxoquinoline-3-carboxamide]: the “% Activity” value was “++ (between 25% to 100%)”.

For `CC(C)(C)c1cc(C(C)(C)C)c(NC(=O)c2c[nH]c3ccc(C(F)(F)F)cc3c2=O)cc1O` [Compound 515, N-(5-hydroxy-2,4-ditert-butyl-phenyl)-4-oxo-6-(trifluoromethyl)-1H-quinoline-3-carboxamide], the “% Activity” value is “+ (<25%)”.

For the compound `O=C(Nc1cccc(C(F)(F)F)c1)c1c[nH]c2ccccc2c1=O` [Compound 164, 4-oxo-N-[3-(trifluoromethyl)phenyl]-1H-quinoline-3-carboxamide], the concentration giving a half-maximal response (EC50) was less than 10 µM and the “% Activity” value is “++ (between 25% to 100%)”.

Consider `O=C(Nc1ccc(S(=O)(=O)Nc2ccccn2)cc1)c1c[nH]c2ccccc2c1=O` [Compound 21, 4-oxo-N-[4-(2-pyridylsulfamoyl)phenyl]-1H-quinoline-3-carboxamide], for which the EC50 was 25 to 60 µM and the “% Activity” value was “+ (<25%)”.

Take `Cc1cccc2[nH]cc(C(=O)Nc3ccc(N4[C@H](C)CC[C@H]4C)cc3C(F)(F)F)c(=O)c12` [Compound 539, N-(4-((2R,5R)-2,5-dimethylpyrrolidin-1-yl)-2-(trifluoromethyl)phenyl)-5-methyl-4-oxo-1,4-dihydroquinoline-3-carboxamide]: the concentration for a half-maximal effect (EC50) was less than 10 µM and the “% Activity” value is listed as “++ (between 25% to 100%)”.

Regarding `N#Cc1c[nH]c2cc(NC(=O)c3c[nH]c4ccccc4c3=O)ccc12` [Compound 339, N-(3-cyano-1H-indol-6-yl)-4-oxo-1H-quinoline-3-carboxamide], the EC50 was less than 10 µM and the “% Activity” value is on record as “++ (between 25% to 100%)”.

In the case of `CC(C)(C)c1cc(F)c(NC(=O)c2c[nH]c3ccc(Cl)cc3c2=O)cc1O` [Compound 561, 6-chloro-N-(2-fluoro-5-hydroxy-4-tert-butyl-phenyl)-4-oxo-1H-quinoline-3-carboxamide], the EC50 was less than 10 µM and the “% Activity” value is reported as “++ (between 25% to 100%)”.

Turning to `O=C(Nc1ccc2[nH]ncc2c1)c1c[nH]c2ccccc2c1=O` [Compound 217, N-(1H-indazol-5-yl)-4-oxo-1H-quinoline-3-carboxamide], the concentration for a half-maximal effect (EC50) is 10 to 25 µM and the “% Activity” value is on record as “++ (between 25% to 100%)”.

Turning to `CC(C)(C)c1cc2cc[nH]c2cc1NC(=O)c1c[nH]c2cc(F)c(F)cc2c1=O` [Compound 646, 6,7-difluoro-4-oxo-N-(5-tert-butyl-1H-indol-6-yl)-1H-quinoline-3-carboxamide], the EC50 was less than 10 µM and the “% Activity” value is given as “++ (between 25% to 100%)”.

For `CCc1ccc(NC)cc1NC(=O)c1c[nH]c2ccccc2c1=O` [Compound 157, N-(2-ethyl-5-methylamino-phenyl)-4-oxo-1H-quinoline-3-carboxamide], the EC50 was less than 10 µM and the “% Activity” value is “++ (between 25% to 100%)”.

For the origin of these results see patent US8614327B2 (Vertex Pharmaceuticals Incorporated, priority 2004, dated 2013).
